Several values for one entry are separate records, joined by “and”; a condition that tells them apart may be missing. Identical values can stand only once. Inconclusive results and toxic doses are left out. Rule for the calls: active = survival T/C of 150% or more; inactive = T/C below 125% in these data.
Test system: CD2F1 mice, L1210 leukemia ip, survival T/C
Assay: NCI In Vivo Anticancer Drug Screen. Data for tumor model L1210 Leukemia (intraperitoneal) in CD2F1 (CDF1) mice
Details: higher = longer survival
Method in brief: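 In this screen, transplantable tumors were grown in mice given either the compound or its vehicle. Results were expressed as the treated measurement relative to the control measurement.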

[1] = endpoint: mean survival time, dose: 100.0 mg/kg/injection, schedule: Q01DX001 (ip), vehicle: saline with Tween-80
[2] = endpoint: mean survival time, dose: 100.0 mg/kg/injection, schedule: Q04DX003 (ip), vehicle: saline with Tween-80
[3] = endpoint: mean survival time, dose: 200.0 mg/kg/injection, schedule: Q04DX003 (ip), vehicle: saline with Tween-80
[4] = endpoint: mean survival time, dose: 400.0 mg/kg/injection, schedule: Q04DX003 (ip), vehicle: saline with Tween-80
[5] = endpoint: mean survival time, dose: 25.0 mg/kg/injection, schedule: Q01DX001 (ip), vehicle: saline with Tween-80
[6] = endpoint: mean survival time, dose: 100.0 mg/kg/injection, schedule: Q01DX001 (ip), vehicle: saline
[7] = endpoint: mean survival time, dose: 200.0 mg/kg/injection, schedule: Q01DX001 (ip), vehicle: saline
[8] = endpoint: mean survival time, dose: 6.25 mg/kg/injection, schedule: Q04DX003 (ip), vehicle: saline with Tween-80
[9] = endpoint: mean survival time, dose: 12.5 mg/kg/injection, schedule: Q04DX003 (ip), vehicle: saline with Tween-80
[10] = endpoint: mean survival time, dose: 25.0 mg/kg/injection, schedule: Q04DX003 (ip), vehicle: saline with Tween-80
[11] = endpoint: mean survival time, dose: 100.0 mg/kg/injection, schedule: Q04DX002 (ip), vehicle: saline with Tween-80
[12] = endpoint: mean survival time, dose: 200.0 mg/kg/injection, schedule: Q04DX002 (ip), vehicle: saline with Tween-80
[13] = endpoint: mean survival time, dose: 400.0 mg/kg/injection, schedule: Q04DX002 (ip), vehicle: saline with Tween-80
[14] = endpoint: mean survival time, dose: 6.25 mg/kg/injection, schedule: Q01DX009 (ip), vehicle: saline with Tween-80
[15] = endpoint: mean survival time, dose: 12.5 mg/kg/injection, schedule: Q01DX009 (ip), vehicle: saline with Tween-80
[16] = endpoint: mean survival time, dose: 25.0 mg/kg/injection, schedule: Q01DX009 (ip), vehicle: saline with Tween-80

Measured: T/C

C=CC1(C)C(C)=C(C)C(C)=C1C
inactive: endpoint: mean survival time, dose: 100.0 mg/kg/injection, schedule: Q01DX001 (ip), vehicle: saline sonified 100 % of control | endpoint: mean survival time, dose: 200.0 mg/kg/injection, schedule: Q01DX001 (ip), vehicle: saline sonified 94 % of control | endpoint: mean survival time, dose: 400.0 mg/kg/injection, schedule: Q01DX001 (ip), vehicle: saline sonified 89 % of control

CC(C)(C(=O)O)C(C)(C)C(=O)O
inactive: [1] 98 % of control | endpoint: mean survival time, dose: 200.0 mg/kg/injection, schedule: Q01DX001 (ip), vehicle: saline with Tween-80 98 % of control | endpoint: mean survival time, dose: 400.0 mg/kg/injection, schedule: Q01DX001 (ip), vehicle: saline with Tween-80 101 % of control

O=C(NCCCl)NCCCl
inactive: endpoint: median survival time, dose: 267.0 mg/kg/injection, schedule: Q07DX003 (ip), vehicle: saline 103 % of control | endpoint: median survival time, dose: 400.0 mg/kg/injection, schedule: Q07DX003 (ip), vehicle: saline 97 % of control | endpoint: median survival time, dose: 600.0 mg/kg/injection, schedule: Q07DX003 (ip), vehicle: saline 94 % of control | endpoint: median survival time, dose: 800.0 mg/kg/injection, schedule: Q07DX003 (ip), vehicle: saline 99 % of control and 100 % of control

CN(C)C=NCCc1ccccc1
inactive: endpoint: mean survival time, dose: 50.0 mg/kg/injection, schedule: Q01DX001 (ip), vehicle: saline 97 % of control

CC(C)OC(=O)CC#N
inactive: [2] 96 % of control | [3] 105 % of control | [4] 96 % of control

C1CCC(CCC2CCCC[N-]2)[N-]C1.[I][Zn][I] (stereo unspecified)
inactive: [5] 107 % of control | endpoint: mean survival time, dose: 50.0 mg/kg/injection, schedule: Q01DX001 (ip), vehicle: saline with Tween-80 86 % of control | [1] 86 % of control | [6] 103 % of control | [7] 100 % of control

C[N+](C)(C)C1(Cc2ccc(Br)cc2)c2ccccc2-c2ccccc21
inactive: [8] 88 % of control | [9] 88 % of control | [10] 87 % of control | [2] 92 % of control

CC(C)OC(=O)N(C(=O)OC(C)C)c1ccc(F)cc1
inactive: [11] 91 % of control | [12] 97 % of control | [13] 94 % of control

O=C(CCl)Nc1cc(C(F)(F)F)ccc1Cl
inactive: [14] 101 % of control | [15] 101 % of control | [16] 104 % of control | [2] 104 % of control | [3] 97 % of control | [4] 97 % of control

CC(=O)c1ccc2c3c(ccc([N+](=O)[O-])c13)C(=O)OC2=O
inactive: [2] 91 % of control | [3] 95 % of control

Cc1cccc(Cl)c1NC(=O)CS
inactive: [2] 98 % of control | [3] 98 % of control | [4] 98 % of control

Clc1ccc(-c2nnn3ccccc23)cc1
inactive: endpoint: mean survival time, dose: 12.5 mg/kg/injection, schedule: Q01DX001 (ip), vehicle: saline with Tween-80 107 % of control | [5] 86 % of control | [6] 97 % of control | [7] 89 % of control

Nc1nc(Cl)c2nc(Cl)n(C3OC(CO)C(O)C3O)c2n1 (stereo unspecified)
inactive: [6] 102 % of control | [7] 102 % of control | endpoint: mean survival time, dose: 400.0 mg/kg/injection, schedule: Q01DX001 (ip), vehicle: saline 100 % of control

Brc1nc(-c2ccccc2)cc(-c2ccccc2)c1-c1ccccc1
inactive: [11] 90 % of control | [12] 90 % of control | [13] 97 % of control

COC(=O)C=P(c1ccccc1)(c1ccccc1)c1ccccc1
inactive: [14] 97 % of control | [8] 98 % of control | [15] 103 % of control | [9] 101 % of control | [16] 97 % of control and 94 % of control | [10] 95 % of control | endpoint: mean survival time, dose: 50.0 mg/kg/injection, schedule: Q01DX009 (ip), vehicle: saline with Tween-80 95 % of control | endpoint: mean survival time, dose: 100.0 mg/kg/injection, schedule: Q01DX009 (ip), vehicle: saline with Tween-80 100 % of control | [2] 97 % of control

From PubChem BioAssay AID256 (DTP/NCI, 2004)
